Data taken from patent publication US20260317337A1, “HETEROCYCLIC COMPOUNDS FOR IMAGING AGGREGATED ALPHA SYNUCLEIN IN THE SYNUCLEINOPATHIES” (THE TRUSTEES OF THE UNIVERSITY OF PENNSYLVANIA, priority 2023, published 2026).
Read-outs that look alike come from different tables or passages of the source.

Columns and labels:
[1] = Dynamic PET imaging in non-human primate; format: in vivo
Method: FIG. 2 are dynamic whole body PET images of ^11C-compound 103 in a non-human primate 1-90 minutes after administration ^11C-compound 103.
FIG. 6 are dynamic PET images (top) and time-activity curves for whole brain and different brain regions (bottom) of ^11C-compound 103 in a non-human primate and show the high uptake and rapid washout of [^11C]-compound 103.
FIG. 7 are dynamic PET images (top) and time-activity curves (bottom) of ^11C-compound 43 in a non-human primate and show the high uptake and rapid washout of [^11C]-compound 43.
Kd and Bmax values of [^3H]-Compound 113 were obtained from a panel of postmortem brain samples (e.g., PD, MSA, corticobasal degeneration (CBD), progressive supranuclear palsy (PSP), Alzheimer's disease (AD)). Nuclear emulsion autoradiography identified the distribution of [^3H]-Compound 113 on PD and MSA tissues for aggregated Asyn, which was confirmed by antibody staining. Dynamic whole body PET images of [^11C]-Compound 113 in non-human primate were obtained over 90 min. […] The non-human primate PET study confirmed that [^11C]-Compound 113 had good brain uptake (SUV ~1.6) and rapid washout (2:60 min ratio ~3.0).

alpha synuclein = target: T1, alpha synuclein (Homo sapiens, UniProt P37840); test: Autoradiography in postmortem brain tissue sections; format: binding; settings: PD, MSA and control brain sections
T1 construct: autoradiography
Method: FIGS. 1A and 1C are nuclear emulsion autoradiography images of a postmortem brain samples (A—[…] PD brain; C—MSA brain) after administration of ^3H-Compound 103. FIGS. 1B and 1D are the same samples from FIGS. 1A and 1C after incubating sequentially with anti-phospho-α-syn (S129) antibody (p-syn/81A, BioLegend) and Alexa Fluor 488 goat anti-mouse secondary antibody to immunostain LBs and LNs. FIGS. 1E and 1G are nuclear emulsion autoradiography images of postmortem brain samples of (E—PD brain; G—[…] MSA brain) with ^3H-Compound 43. FIGS. 1F and 1H are the same samples from FIGS. 1E and 1G after incubating sequentially with anti-phospho-α-syn (S129) antibody (p-syn/81A, BioLegend) and Alexa Fluor 488 goat anti-mouse secondary antibody to immunostain LBs and LNs.
FIG. 3 are autoradiography images in tissue sections of ^3H-Compound 103 and ^3H-Compound 43 in PD, MSA and control brain. Neuropathological scores for Abeta, tau and Asyn are shown for each tissue section.
Kd and Bmax values of [^3H]-Compound 113 were obtained from a panel of postmortem brain samples (e.g., PD, MSA, corticobasal degeneration (CBD), progressive supranuclear palsy (PSP), Alzheimer's disease (AD)). Nuclear emulsion autoradiography identified the distribution of [^3H]-Compound 113 on PD and MSA tissues for aggregated Asyn, which was confirmed by antibody staining. […]

aggregated tau = aggregated tau (Homo sapiens, UniProt P10636); test: Blocking of the ^3H-labelled compound with tau ligands, homogenate binding and autoradiography; settings: AD, CBD and PSP
α-synuclein fibrils = α-synuclein fibrils (Homo sapiens, UniProt P37840); test: Competitive radioligand binding with [^3H]BF2846 on α-synuclein fibrils; settings: [^3H]BF2846, α-synuclein fibrils; mean + Sd, n = 3; read-out: α-syn Ki
Method: Competition binding assays were performed with [^3H]BF2846 and [^3H]PIB to measure affinity to Asyn and Aβ. […]

Chain of aggregated tau (P10636 whole entry): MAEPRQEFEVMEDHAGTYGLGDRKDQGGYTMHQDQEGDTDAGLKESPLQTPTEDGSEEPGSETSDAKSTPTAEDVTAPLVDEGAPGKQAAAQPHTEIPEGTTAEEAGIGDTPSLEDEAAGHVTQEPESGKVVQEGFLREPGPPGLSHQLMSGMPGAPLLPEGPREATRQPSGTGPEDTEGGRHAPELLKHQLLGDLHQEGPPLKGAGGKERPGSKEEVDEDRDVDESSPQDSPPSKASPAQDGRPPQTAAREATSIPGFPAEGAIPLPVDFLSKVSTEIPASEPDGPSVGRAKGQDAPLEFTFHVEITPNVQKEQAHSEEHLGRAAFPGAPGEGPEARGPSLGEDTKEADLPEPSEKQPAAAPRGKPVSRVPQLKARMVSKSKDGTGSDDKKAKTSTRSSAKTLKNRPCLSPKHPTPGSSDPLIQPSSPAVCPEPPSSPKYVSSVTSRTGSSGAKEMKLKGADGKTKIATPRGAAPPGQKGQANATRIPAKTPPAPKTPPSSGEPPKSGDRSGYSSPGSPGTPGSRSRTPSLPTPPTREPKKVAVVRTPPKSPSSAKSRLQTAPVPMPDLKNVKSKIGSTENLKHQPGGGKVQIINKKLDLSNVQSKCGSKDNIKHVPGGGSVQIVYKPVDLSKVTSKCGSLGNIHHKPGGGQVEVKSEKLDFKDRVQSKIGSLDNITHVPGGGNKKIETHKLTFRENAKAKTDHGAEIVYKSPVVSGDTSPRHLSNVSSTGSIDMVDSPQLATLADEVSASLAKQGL

Compound: COc1ccc(C(=O)Nc2ccc(N3C4CCC3CN(c3ccccn3)C4)cc2)cc1 [[^11C]-Compound 103, 4-methoxy-N-(4-(3-(pyridin-2-yl)-3,8-diazabicyclo[3.2.1]octan-8-yl)phenyl)benzamide]
- uptake (words) [1]: high brain uptake
- washout [1]: rapid washout
- uptake (words) ([1]; listed as [^11C]-compound 103): high uptake

Compound: COc1ccc(C(=O)Nc2ccc(N3C4CCC3CN(c3ccccn3)C4)cc2)cc1 [[^3H]-Compound 103, 4-methoxy-N-(4-(3-(pyridin-2-yl)-3,8-diazabicyclo[3.2.1]octan-8-yl)phenyl)benzamide]
- ability to image alpha synuclein in human postmortem samples (alpha synuclein): MSA and not PD and age-matched control

Compound: COc1ccc(NC(=O)c2cnc(Cl)nc2)cc1 [[^11C]-compound 43]
- uptake (words) [1]: high uptake
- washout [1]: rapid washout

Compound: Fc1cc(-c2ccc3c(n2)[nH]c2ccncc23)ccn1 [PI-2620]
- blocking of [^3H]-Compound 113 binding by tau ligands (aggregated tau): could not be blocked

Compound: COc1ccc(NC(=O)c2cnc(Cl)nc2)cc1 [[^3H]-Compound 43]
- ability to image alpha synuclein in human postmortem samples (alpha synuclein): PD and not MSA and age-matched control

Compound: CNc1ccc(/C=C/C=C/c2nc3ccc(OCC(O)CF)cc3s2)cn1 (stereo not drawn) [PM-PBB3]
- blocking of [^3H]-Compound 113 binding by tau ligands (aggregated tau): could not be blocked

Compound: CCOC(=O)c1cnc(N2C3CCC2CN(c2cc4ccccc4cn2)C3)nc1N [Compound 2, Ethyl 4-amino-2-(3-(isoquinolin-3-yl)-3,8-diazabicyclo[3.2.1]octan-8-yl)pyrimidine-5-carboxylate]
- Ki (α-synuclein fibrils): 26.3 nM

Compound: CCOC(=O)c1cnc(N2CCN(c3cnccn3)CC2)nc1N [Compound 121, Ethyl 4-amino-2-(4-(pyrazin-2-yl)piperazin-1-yl)pyrimidine-5-carboxylate]
- Ki (α-synuclein fibrils): 8.4 nM

Compound: CCOC(=O)c1cnc(N2C3CCC2CN(c2nc4ccccc4s2)C3)nc1N [Compound 12, Ethyl 4-amino-2-(3-(benzo[d]thiazol-2-yl)-3,8-diazabicyclo[3.2.1]octan-8-yl)pyrimidine-5-carboxylate]
- Ki (α-synuclein fibrils): 23.4 nM
